Experimental data taken from patent US10590166B2, “Peptides useable for treating cancer” (Allegro Pharmaceuticals, LLC, priority 2009, dated 2020).

Key:
[1] = test system: human umbilical vein endothelial cells (HUVEC); test: wound-healing assay with HUVEC on fibronectin coated surface; type: cell-based
Protocol: To test the anti-adhesive properties of RGCysteic Acid peptides in vitro, a wound-healing assay was performed with human umbilical vein endothelial cells (HUVEC). HUVEC were seeded and allowed to grow to a confluent monolayer on a fibronectin coated surface. A wound (a scratch rift) was created by dragging a small pipette tip across the HUVEC monolayer. The cells were then incubated in fresh growth medium containing the RGCysteic Acid peptide (Compound 1; 10 mM), and the wound area was imaged in five different fields at various time points (0, 4, 8, 12, 16, 20, 24 hours) to determine the kinetics of wound closure. The level of wound closure was quantified by determining the fraction of the original wound area that was re-occupied by HUVEC through cellular adhesion, migration and proliferation.
In control studies, the following peptides were used in place of RGCysteic Acid (Compound 1): cyclic-RGD peptide (1 mM), positive control) and RGE peptide (1 mM, negative control).
The results are shown as a percentage of the original area. The error bars correspond to the standard deviation in wound size across 2-6 independent trials.

[2] = test system: New Zealand Rabbits; test: Ocular toxicity of intravitreal Compound 1 with and without urea (Table A); type: in vivo; settings: single intravitreal injection, 24 hour follow up, 8 eyes per group
[3] = test system: rho/VEGF mice; test: Subretinal neovascularization in transgenic rho/VEGF mice expressing human VEGF; type: in vivo; settings: 10 μg, single intraocular injection, seven days post-dose, 3 animals
Protocol: Transgenic mice in which the rhodopsin promoter drives expression of human VEGF in photoreceptors (rho/VEGF mice) were randomized into separate treatment groups and studies were performed to provide the following comparisons:
Pretreatment measurements of the area of subretinal neovascularization were made on each animal using image analysis by a masked observer. Each animal received its designated treatment in a single intraocular injection. Seven days post-dose, measurements of the area of subretinal neovascularization were again made and compared to the pre-dose measurements to determine the change in subretinal neovascularization area. Also, the animals were sacrificed and the retinas were dissected, immunostained with GSA lectin and examined by fluorescence microscopy.

For CC(C)[C@H]1C(=O)N[C@@H](CCCN=C(N)N)C(=O)NCC(=O)N[C@@H](CC(=O)O)C(=O)N[C@H](Cc2ccccc2)C(=O)N1C [Cyclic RGD, N-methylated cyclic-RGDf-N(Me)V, reference compound], the “inhibition of cell adhesion” value ([1]; HUVEC wound healing model, in 12 hours) was 40% and the “inhibition of HUVEC wound healing” value ([1]; after 24 hours, Compound 1 10 mM, control peptides 1 mM) was 45%.

NC(N)=O [12% Urea solution, Urea, reference compound] was tested, and the “Total PVD” value [2] was 0% Total PVD and the Vitreous liquefaction [2] was “No liquefaction”.

B1: ranibizumab: recombinant humanized IgG1 kappa isotype monoclonal antibody fragment (antibody, chains of the INN, looked up, V domains shown)
VH: EVQLVESGGGLVQPGGSLRLSCAASGYDFTHYGMNWVRQAPGKGLEWVGWINTYTGEPTYAADFKRRFTFSLDTSKSTAYLQMNSLRAEDTAVYYCAKYPYYYGTSHWYFDVWGQGTLVTVSS
VL: DIQLTQSPSSLSASVGDRVTITCSASQDISNYLNWYQQKPGKAPKVLIYFTSSLHSGVPSRFSGSGSGTDFTLTISSLQPEDFATYYCQQYSTVPWTFGQGTKVEIK
modifications: Fab
notes: recombinant humanized IgG1 kappa isotype monoclonal antibody fragment
With B1 the “greater reduction in subretinal neovascularization area than control animals (Phosphate Buffered Saline)” value [3] was 38.96%.
